The target in assay [1] is cleaved human TREX1 (Homo sapiens (Human), UniProt Q9NSU2). Description: TREX1 Thermal Shift Binding Assay (human). The conditions noted are these: assay buffer, 100 μM compound, 5 μM TREX1; read-out: Thermal shift cleaved human TREX1, (ΔTm ° C.) Assay buffer. As for the experimental part: (§1) Example B is a protein thermal shift assay used to assess the binding of TREX1 inhibitors to TREX1 protein. In this assay, TREX1 protein unfolding with increasing temperature was measured in the presence and absence of TREX1 inhibitors by following the increase in fluorescence of a thiol-reactive dye (e.g BODIPY FL-cystine) as it reacts with exposed TREX1 cysteine residues. The assay was conducted using human (SEQ ID NO: 1), or murine (SEQ ID NO: 2) TREX1 protein constructs.
cleaved human TREX1, sequence (Q9NSU2 1-242): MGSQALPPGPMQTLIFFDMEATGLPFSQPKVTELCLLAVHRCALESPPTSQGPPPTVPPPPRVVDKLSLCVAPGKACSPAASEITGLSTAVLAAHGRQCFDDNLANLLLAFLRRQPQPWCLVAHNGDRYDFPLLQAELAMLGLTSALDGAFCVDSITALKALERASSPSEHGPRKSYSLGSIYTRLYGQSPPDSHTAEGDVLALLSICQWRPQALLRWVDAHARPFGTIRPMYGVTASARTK
(§2) The thermal shift assays used recombinant protein corresponding to human (SEQ ID NO: 1) and murine (SEQ ID NO: 2) TREX1. The protein encoding plasmid contained a N-terminal MBP (maltose binding protein) tag followed by the TREX1 coding sequence within the pMAL-c5E vector. The plasmid was transfected into a BL21 (DE3) E. coli expression strain. Protein was purified from the bacterial lysate using an Amylose resin column. The MBP tag was cleaved from the purified protein using recombinant enterokinase (EMD Millipore #69066-3). The cleaved TREX1 protein was further purified on a Q-Sepharose column followed by a heparin column.
(§3) Binding of compounds to both human and murine TREX1 were measured by protein thermal shift assays. (Huynh K, Partch C L. Current Protocols in Protein Science: Analysis of protein stability and ligand interactions by thermal shift assay. Current protocols in protein science/editorial board, John E Coligan. [et al]. 2015; 79:28.9.1-28.9.14. doi:10.1002/0471140864.ps2809s79.). Thermal shift assays were conducted in sealed 96-well PCR plates containing 5 μM TREX1 protein, 100 μM compound, and 2 μM BODIPY FL-cystine (Sigma) in either 20 μL assay buffer (20 mM Tris, 7.5, 5 mM MgCl2, 0.002% Triton X-100) or 20 μL phosphate buffered saline (PBS). Using a RT-qPCR machine (Mx3005P, Stratagene) changes in fluorescence (excitation at 492 nm and emission at 516 nm) were monitored as temperature was increased from 25° C. to 96° C. at a rate of 1° C. every 2 minutes. Tm values were calculated from the first derivative plot of fluorescence intensity versus temperature. The results shown in Table 6 indicate the examples bind to human TREX1 and murine TREX1. ND indicates assay was not done.

The test system of assay [2] is THP1 Dual cells (ISRE Lucia reporter, cGAS-STING pathway). Description: THP1 monocyte assay, ISRE Lucia luciferase reporter. Type of assay: cell-based, human. As to conditions: 48 hours, luciferase signal versus control wells without compound. An excerpt: Example C is a cell-based assay for TREX1 inhibitors using THP1 Dual™ cells (Invivogen), a human monocyte cell line that has stable integration of an Interferon Stimulated Response Element (ISRE) Lucia reporter gene. The Lucia gene encodes a secreted luciferase reporter protein, under the control of an ISG54 minimal promoter in conjunction with five IFN-stimulated response elements. Activation of the cGAS-STING pathway in THP1 Dual™ cells leads to enhanced luciferase secretion and increased luminescence.
A cell-based assay was established using THP1 Dual™ cells (Invivogen), a human monocyte cell line that has stable integration of an Interferon Stimulated Response Element (ISRE) Lucia reporter gene. The Lucia gene encodes a secreted luciferase reporter protein, under the control of an ISG54 minimal promoter in conjunction with five IFN-stimulated response elements. Activation of the cGAS-STING pathway in these cells leads to enhanced luciferase secretion. The assay was conducted in standard 384-well white tissue culture plates. Cells (25,000 in 25 μL RPMI 1640 containing 10% Heat-Inactivated FBS, 1× Glutagro, 10 mM HEPES, 1 mM sodium pyruvate, 1× Pen/Strep, 100 μg/mL Normocin, 100 μg/mL Zeocin, 10 μg/mL Blasticidin) were added to the plate followed by 25 μL of compound in the same media+0.2% DMSO. The assay was incubated for 48 hours at 37° C. in 5% CO2. An aliquot of 5 μl was removed to combine with 12.5 μL of the luciferase detection reagent, QUANTI-Luc™ Gold (Invivogen) in a white 384-well plate. The luminescent signal was then read using an EnVision plate reader (Perkin Elmer). The fold activation was calculated by dividing the signal in wells containing test compound by the signal in the control wells without compound (see Table 7).
(In general: A reporter such as luciferase makes a cellular process visible.)

For assay [3], the target named is cleaved mouse TREX1 (Mus musculus (Mouse), UniProt Q91XB0). Briefly: TREX1 Thermal Shift Binding Assay (mouse). As to conditions: PBS, 100 μM compound, 5 μM TREX1; read-out: Thermal shift cleaved mouse TREX1, (ΔTm ° C.) PBS. As for the experimental part:
as §1, §2, §3

Molecules are shown by their SMILES.

cleaved mouse TREX1, sequence (Q91XB0 1-242): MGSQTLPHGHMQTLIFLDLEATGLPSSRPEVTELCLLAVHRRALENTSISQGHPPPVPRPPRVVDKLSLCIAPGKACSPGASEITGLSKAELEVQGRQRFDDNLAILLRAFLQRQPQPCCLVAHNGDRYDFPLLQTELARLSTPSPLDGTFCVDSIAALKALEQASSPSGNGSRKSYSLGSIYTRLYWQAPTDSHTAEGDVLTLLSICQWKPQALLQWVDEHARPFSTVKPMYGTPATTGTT

On to `N[C@@H]1C[C@H]2C(=O)N([C@H](CCC(=O)O)C(=O)NCc3ccc(Cl)c(Cl)c3)CCC(CCc3ccccc3)N2C1` (stereo partly drawn) [Example 14B], for which the ΔTm at 100 µM in assay [1] and in assay [3] was greater than 8 °C throughout. In addition, the “Fold activation @ 10 μM” value in assay [2] was 12.

Values taken from patent US11306098B2, “Substituted pyrrolo[1,2-a]pyrazines and pyrrolo[1,2-a][1,4]diazepines as TREX1 inhibitors” (VENENUM BIODESIGN, LLC, priority 2019, dated 2022).
